PMC5281649 (European Journal of Nuclear Medicine and Molecular Imaging, 2016)
Where two headings read alike, the source gives them in different places.

How the values were obtained:
[1] = Pre-PET sembragiline plasma concentration at steady state (LC-MS/MS); assay type: in vivo, human
brain MAO-B enzyme [2] = molecular target: T1, brain MAO-B enzyme (Homo sapiens, UniProt P27338); test: Plasma concentration–MAO-B enzyme inhibition relationship (simple Emax model); assay type: in vivo
T1 sequence (P27338 1-520): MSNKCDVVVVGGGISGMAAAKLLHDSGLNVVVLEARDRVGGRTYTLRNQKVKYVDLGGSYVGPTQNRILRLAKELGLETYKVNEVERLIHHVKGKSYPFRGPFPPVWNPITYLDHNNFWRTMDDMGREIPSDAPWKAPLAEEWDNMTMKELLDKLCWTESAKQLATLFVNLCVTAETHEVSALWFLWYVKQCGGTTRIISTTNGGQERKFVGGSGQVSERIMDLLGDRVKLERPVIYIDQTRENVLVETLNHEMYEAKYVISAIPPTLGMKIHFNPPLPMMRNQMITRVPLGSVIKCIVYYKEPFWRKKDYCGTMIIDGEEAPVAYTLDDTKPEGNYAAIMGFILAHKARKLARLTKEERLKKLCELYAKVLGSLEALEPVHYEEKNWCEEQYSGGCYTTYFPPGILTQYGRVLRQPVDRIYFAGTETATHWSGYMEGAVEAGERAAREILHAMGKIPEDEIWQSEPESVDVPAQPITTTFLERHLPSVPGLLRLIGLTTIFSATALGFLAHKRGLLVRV
Protocol: The PK/PD analysis was performed using Phoenix WinNonlin software version 6.2 (Pharsight Corporation, Mountain View, CA, USA).

[3] = Safety assessments in this PET study; assay type: in vivo, human
Protocol: The safety of sembragiline was assessed by monitoring vital signs, laboratory tests and adverse events (AEs), and by evaluating the risk of suicide using the Columbia Suicide Severity Rating Scale.

MAO-B enzyme = molecular target: MAO-B enzyme; set-up: method as in doi:10.1016/j.jalz.2013.05.1757; conditions: MAO enzymatic activity and displacement assays; read-out: IC50 from in vitro affinity assays of the MAO-B enzyme; cited from earlier work
[4] = set-up: method as in PMID 22451094; conditions: elderly subjects; steady-state conditions; plasma; cited from earlier work
[5] = set-up: method as in PMID 22451094; conditions: phase 1 and 2 studies, approximately 1040 subjects; cited from earlier work
brain MAO-B enzyme [6] = molecular target: T1, brain MAO-B enzyme; conditions: ref Roche data on file, cited from earlier work; for Brain MAO-B inhibition: young healthy subjects

For CC(=O)N[C@H]1CC(=O)N(c2ccc(OCc3cccc(F)c3)cc2)C1 [sembragiline], the “Pre-PET sembragiline plasma concentration at steady state, mean” value ([1]; AD patients, 1 mg q.d. for 14 days, N 3) was 41.9 ng/mL, the “Pre-PET sembragiline plasma concentration at steady state, mean” value ([1]; AD patients, 5 mg loading day 1 then 0.1 mg q.d. Day 2–15, N 2) was 2.55 ng/mL and the “Pre-PET sembragiline plasma concentration at steady state, mean” value ([1]; AD patients, 5 mg loading day 1 then 0.2 mg q.d. Day 2–7, N 3) was 7.06 ng/mL. The “Pre-PET sembragiline plasma concentration at steady state, mean” value ([1]; AD patients, 5 mg q.d. for 6–9 days, N 2) was 96.7 ng/mL, the “Pre-PET sembragiline plasma concentration at steady state, mean” value ([1]; EC subjects, 1 mg q.d. for 14 days, N 3) was 33.9 ng/mL and the “Pre-PET sembragiline plasma concentration at steady state, mean” value ([1]; EC subjects, 5 mg loading day 1 then 0.2 mg q.d. Day 2–7, N 3) was 3.29 ng/mL. For the same molecule, the “Emax (maximum MAO-B occupancy)” value (brain MAO-B enzyme [2]; AD patients, frontal cortex, steady state, pre-scan plasma concentration) was 81.1 (CV%: 3.2), the EC50 (brain MAO-B enzyme [2]; AD patients, frontal cortex, steady state, pre-scan plasma concentration, read-out: EC50 (plasma concentration at half-maximal occupancy) (converted)) was 3.1 nM and the “Emax (maximum MAO-B occupancy)” value (brain MAO-B enzyme [2]; AD patients, hippocampus, steady state, pre-scan plasma concentration) was 85.9 (CV%: 4.1). For the same molecule, the EC50 (brain MAO-B enzyme [2]; AD patients, hippocampus, steady state, pre-scan plasma concentration, read-out: EC50 (plasma concentration at half-maximal occupancy) (converted)) was 3.77 nM, the “Emax (maximum MAO-B occupancy)” value (brain MAO-B enzyme [2]; AD patients, striatum, steady state, pre-scan plasma concentration) was 87.8 (CV%: 1.8) and the EC50 (brain MAO-B enzyme [2]; AD patients, striatum, steady state, pre-scan plasma concentration, read-out: EC50 (plasma concentration at half-maximal occupancy) (converted)) was 3.24 nM. The “Emax (maximum MAO-B occupancy)” value (brain MAO-B enzyme [2]; EC subjects, frontal cortex, steady state, pre-scan plasma concentration) was 80.1 (CV%: 8.9), the EC50 (brain MAO-B enzyme [2]; EC subjects, frontal cortex, steady state, pre-scan plasma concentration, read-out: EC50 (plasma concentration at half-maximal occupancy) (converted)) was 4.59 nM and the “Emax (maximum MAO-B occupancy)” value (brain MAO-B enzyme [2]; EC subjects, hippocampus, steady state, pre-scan plasma concentration) was 89.1 (CV%: 9.6). For the same molecule, the EC50 (brain MAO-B enzyme [2]; EC subjects, hippocampus, steady state, pre-scan plasma concentration, read-out: EC50 (plasma concentration at half-maximal occupancy) (converted)) was 5.99 nM, the “Emax (maximum MAO-B occupancy)” value (brain MAO-B enzyme [2]; EC subjects, striatum, steady state, pre-scan plasma concentration) was 88.8 (CV%: 7.5) and the EC50 (brain MAO-B enzyme [2]; EC subjects, striatum, steady state, pre-scan plasma concentration, read-out: EC50 (plasma concentration at half-maximal occupancy) (converted)) was 4.88 nM. The “Estimated Emax of MAO-B inhibition” value (brain MAO-B enzyme [2]; across ROIs and for both populations, steady state) was 80–89%, the EC50 (brain MAO-B enzyme [2]; across ROIs and for both populations, steady state, read-out: Estimated EC50 (plasma concentration)) was 2.92 to 5.84 nM and the Emax (brain MAO-B enzyme [2]; across ROIs and for both populations, steady state, read-out: Estimated Emax of MAO-B inhibition) was 80 to 90%. For the same molecule, the “Sembragiline concentration needed for near-complete MAO-B inhibition in the brain” value (brain MAO-B enzyme [2]; regardless of the population) was “around 20 ng/mL”, the “Plasma concentration at which the plateau in MAO-B inhibition occurred” value (brain MAO-B enzyme [2]; steady state, AD patients and EC subjects) was 20 to 50 ng/mL and the “AEs reported as drug-related” value ([3]; 16 treated subjects (AD and EC)) was 11 of 20. The “Changes in laboratory parameters, vital signs or ECG measurements” value ([3]; AD patients and EC subjects) was “no clinically significant changes”, the Tolerability ([3]; AD patients and EC subjects, 0.1–5 mg daily for 6–15 days) was “well tolerated” and the IC50 (MAO-B enzyme) was 5 to 6 nM. For the same molecule, the Terminal half-life [4] was 50 to 65 h, the Safety and tolerability [5] was “safe and well tolerated” and the Brain penetration (brain MAO-B enzyme [6]; healthy young men, PET imaging) was “crosses the blood–brain barrier”. For the same molecule, the “Brain MAO-B inhibition” value (brain MAO-B enzyme [6]; 5 mg daily for 2–10 days, cortical regions) was 52–78%, the “Brain MAO-B inhibition” value (brain MAO-B enzyme [6]; 5 mg daily for 2–10 days, subcortical regions) was 73–87% and the “Brain MAO-B inhibition” value (brain MAO-B enzyme [6]; 15 mg, cortical regions) was 68–74%. For the same molecule, the “Brain MAO-B inhibition” value (brain MAO-B enzyme [6]; 15 mg, subcortical regions) was 83–86%.
